Laboratory results published in patent publication US20250195511A1, “INDAZOLE DERIVATIVES USEFUL AS INHIBITORS OF NOD-LIKE RECEPTOR PROTEIN 3” (Merck Sharp & Dohme LLC, priority 2023, published 2025).

Test system: NLRP3 inflammasome
Test: NLRP3 inflammasome activation: ASC-SPECK formation in gramicidin-stimulated THP-1 cells
Format: cell-based
Settings: PMA-treated human monocytic THP-1 cells, compound 1 h before 12.5 μg/ml gramicidin, 3-hour treatment
Source text: Activation of the canonical NLRP3 inflammasome requires two steps, priming and activation. A priming signal such as a pathogen activated molecular patterns (PAMPs) or danger-activated molecular patterns (DAMPs) are recognized by Toll-like receptors leads to nuclear factor kappa B (NF-KB)-mediated signaling. […] The second step is activation which induces oligomerization of NLRP3 and subsequent assembly of NLRP3, apoptosis-associated speck-like protein containing a CARD (ASC), and procaspase-1 into an inflammasome complex. This triggers the transformation of procaspase-1 to caspase-1, and the production and secretion of mature IL-1β and IL-18 (Kim et al., J. Inflamm. 2015, 12, 41; Ozaki et al., J. Inflamm. Res. 2015, 8, 15-27; Rabeony et al., Eur. J. Immunol. 2015, 45, 2847). During inflammasome complex assembly, the oligomerization of NLRP3 triggers the nucleation of ASC and an event commonly referred to as “ASC SPECK” formation, as it is identified in the cell as a discrete puncta within the cell after staining and visualization of ASC using common immunocytochemical methods.
The ability of compounds to inhibit NLRP3 inflammasome activation was determined in vitro by monitoring formation of the ASC-SPECK in human monocytic THP-1 cells after stimulation. THP-1 cells (ATCC catalog #TIB-202) were maintained in complete growth media containing Roswell Park Memorial Institute RPMI (ATCC catalog #30-2001), 10% heat inactivated fetal bovine serum, 1× penicillin/streptomycin and 0.05 mM 2-mercaptoethanol. At the start of the assay, undifferentiated THP-1 cells were plated at a density of 20,000 cells per well in a 384-well plate (Poly-D-lysine coated Cell Carrier Ultra microplate, Perkin Elmer catalog #6057500) in complete growth media supplemented with 10 ng/ml phorbol 12-myristate 13-acetate (PMA; Sigma catalog #P8139), and then incubated overnight. The next day, media was replaced with assay media (RPMI (Gibco catalog #11875-093), 0.01% bovine serum albumin (BSA)). Compounds were serially diluted in DMSO and then added to wells one hour prior to the addition of 12.5 μg/ml Gramicidin (Enzo Lifescience, catalog #ALX-350-233-M005). All incubations were carried out at 37° C. (5% CO2/95% air). Following a 3-hour treatment with gramicidin, cells are fixed with 4% paraformaldehyde and stored at 4° C. until immunofluorescence staining.
Immunofluorescence staining: Anti-ASC antibody (MBL catalog #D086-3) was desalted and labeled with Alexa 488 antibody labeling kit (Thermo catalog #A20181) prior to use as described below. After fixation, the following steps were carried out at rt. Cells were first permeabilized with 0.3% polyethylene glycol tert-octylphenyl ether (Triton X-100) in phosphate-buffered saline (PBS) for 15 minutes and then incubated in blocking buffer containing 5% goat serum, 0.3% polyethylene glycol sorbitan monolaurate (Tween-20) and 0.03% sodium azide in PBS for 1 hour. Cells were stained with a mixture of ASC-Alexa 488 antibody (diluted 1:200 in blocking buffer) and nuclear stain DRAQ5 (1:5000 in blocking buffer, Thermo catalog #62251) in blocking buffer for 1 hour. Following a wash with 0.3% polyethylene glycol sorbitan monolaurate (Tween-20) in PBS, plates were imaged with an Opera Phenix High Content Screening System. The number of DRAQ5 positive cells containing ASC SPECKS were quantified in each well.
Data analysis: EC50 values were calculated by standard curve-fitting analysis using an internally developed program in TIBCO Spotfire software.

[1] = Homo sapiens, THP-1, inhibition of ASC SPECK formation
[2] = inhibition of ASC SPECK formation

Row | SMILES | EC50 [1] [nM] | EC50 [2] [nM]
1 | CCN1C[C@H](Cn2cc3ncc(-c4c(C)cc(C(F)(F)F)cc4O)nc3n2)OC1=O [Example 110, (R)-3-ethyl-5-((6-(2-hydroxy-6-methyl-4-(trifluoromethyl)phenyl)-2H-pyrazolo[3,4-b]pyrazin-2-yl)methyl)oxazolidin-2-one] | 168 | –
2 | Cc1cc(C(F)(F)F)cc(O)c1-c1cnc2cn(CC3CC(=O)N(C)C3)nc2n1 (single isomer, unassigned) [Example 59, (S or R)-4-((6-(2-hydroxy-6-methyl-4-(trifluoromethyl)phenyl)-2H-pyrazolo[3,4-b]pyrazin-2-yl)methyl)-1-methylpyrrolidin-2-one] | – | 20
3 | Cc1cc(C(F)(F)F)cc(O)c1-c1cnc2cn([C@H]3CC[C@H](C#N)CC3)nc2n1 [Example 40, (1R,4R)-4-(6-(2-hydroxy-6-methyl-4-(trifluoromethyl)phenyl)-2H-pyrazolo[3,4-b]pyrazin-2-yl)cyclohexane-1-carbonitrile] | 81 | –
4 | Cc1cc(C(F)(F)F)cc(O)c1-c1cnc2cn(CC3CC(=O)N(C4CC4)C3)nc2n1 (single isomer, unassigned) [Example 62, (R or S)-1-cyclopropyl-4-((6-(2-hydroxy-6-methyl-4-(trifluoromethyl)phenyl)-2H-pyrazolo[3,4-b]pyrazin-2-yl)methyl)pyrrolidin-2-one] | – | 291
5 | Cc1cc(C(F)(F)F)cc(O)c1-c1cnc2cn(C3CCc4nnc(C(F)(F)F)n4C3)nc2n1 (single isomer, unassigned) [Example 71, (S or R)-3-methyl-5-(trifluoromethyl)-2-(2-(3-(trifluoromethyl)-5,6,7,8-tetrahydro-[1,2,4]triazolo[4,3-a]pyridin-6-yl)-2H-pyrazolo[3,4-b]pyrazin-6-yl)phenol] | – | 198
6 | Cc1cc(C(F)(F)F)cc(O)c1-c1cnc2cn(C34CC(C3)S(=O)(=O)C4)nc2n1 [Example 2, 4-(6-(2-hydroxy-6-methyl-4-(trifluoromethyl)phenyl)-2H-pyrazolo[3,4-b]pyrazin-2-yl)-2-thiabicyclo[2.1.1]hexane 2,2-dioxide] | 50 | –
7 | Cc1cc(C(F)(F)F)cc(O)c1-c1cnc2cn([C@H]3CCOC[C@@H]3C)nc2n1 (single isomer, unassigned) [Example 87, 3-methyl-2-(2-((3R,4S or 3S,4R)-3-methyltetrahydro-2H-pyran-4-yl)-2H-pyrazolo[3,4-b]pyrazin-6-yl)-5-(trifluoromethyl)phenol] | 564 | –
8 | Cc1cc(C(F)(F)F)cc(O)c1-c1cnc2cn([C@]34CCC[C@H]3OCC4)nc2n1 (mixture of isomers) [Example 21, 2-(2-((3aS,6aR and 3aR,6aS)-hexahydro-3aH-cyclopenta[b]furan-3a-yl)-2H-pyrazolo[3,4-b]pyrazin-6-yl)-3-methyl-5-(trifluoromethyl)phenol] | 814 | –
9 | Cc1cc(C(F)(F)F)cc(O)c1-c1cnc2cn([C@@H]3CCOC[C@@H]3C)nc2n1 (single isomer, unassigned) [Example 86, 3-methyl-2-(2-((3S,4S or 3R,4R)-3-methyltetrahydro-2H-pyran-4-yl)-2H-pyrazolo[3,4-b]pyrazin-6-yl)-5-(trifluoromethyl)phenol] | – | 326
10 | Cc1cc(C(F)(F)F)cc(O)c1-c1cnc2cn(C34COC(CO)(C3)C4)nc2n1 [Example 41, 2-[2-[1-(hydroxymethyl)-2-oxabicyclo[2.1.1]hexan-4-yl]pyrazolo[3,4-b]pyrazin-6-yl]-3-methyl-5-(trifluoromethyl)phenol] | 78 | –
11 | Cc1cc(C(F)(F)F)cc(O)c1-c1cnc2c(C(C)O)n(C3CCC(=O)N(C(C)C)C3)nc2n1 (single isomer, unassigned) [Example 118, (R or S)-5-(6-(2-hydroxy-6-methyl-4-(trifluoromethyl)phenyl)-3-((S or R)-1-hydroxyethyl)-2H-pyrazolo[3,4-b]pyrazin-2-yl)-1-isopropylpiperidin-2-one] | – | 26
